The text below walks through data of patent publication US10111822B2, “External dermal composition for anti-ageing and method for producing the same” (Hayashibara Co., Ltd., priority 2012, dated 2018).

Each structure is given as a SMILES string.

One test relates to Involucrin. The test can be described thus: Expression of proliferation marker protein involucrin in NHEK cells (Western). The class given is cell-based, human. Particulars: 5 days, control regarded as 50%. As for the experimental part: Normal human epidermal keratinocytes from neonatal foreskin (NHEK cells) were prepared into 2.5×10^5 cells/mL with EpiLife medium, inoculated to 12-well plates in a volume of 1 mL/well, and cultured at 37° C. for one day under a 5% v/v CO2 condition. Thereafter, each supernatant was removed, and a medium, to which ascorbic acid 2-glucoside had been added to give a final concentration of 300 or 600 μM, was added to the resulting cells in a volume of 1 mL/well, followed by culturing the cells at 37° C. for two days under a 5% v/v CO2 condition. Another cell culture system, which had been similarly cultured in a medium free of ascorbic acid 2-glucoside, was provided as a control. The cells cultured with ascorbic acid 2-glucoside were further added with a medium supplemented with the same concentration of sodium salt of ascorbic acid 2-glucoside as that in the above medium in a volume of 1 mL/well, and cultured for another three days under the same conditions. […] Each of the resulting extract was centrifuged to collect a supernatant, and a part of which was subjected to protein quantification. […]

The next test has as its system NHEK cells. The test can be described thus: Proliferation of NHEK cells (methylene blue staining). The class given is cell-based, human. Particulars: 4 days. The text has this:
Normal human epidermal keratinocytes from neonatal foreskin (commercialized by Kurabo Industries Ltd., Osaka, Japan, and abbreviated as “NHEK cells”, hereinafter) were suspended in EpiLife medium (commercialized by Invitrogen Corporation, Calif., USA) supplemented with a cell-growth supplement (EDGS: EpiLife Defined Growth Supplement) (EpiLife medium supplemented with EDGS is abbreviated as “EpiLife medium”, hereinafter), and subjected to passage cultures at a confluent density of 60 to 80% under a 5% v/v CO2 condition and at 37° C. The proliferated cells were detached from culture vessels, suspended in HuMedia-KB2 medium (commercialized by Kurabo Industries Ltd., Osaka, Japan) to give a cell density of 7.5×10^3 cells/mL, inoculated to 24-well plates coated with collagen (“Cell matrix Type IV”, a product name of Nitta Gelatin Inc., Osaka, Japan) in a volume of 0.4 mL/well, and cultured for one day under a 5% v/v CO2 condition and at 37° C. […] Then, the resulting cells were washed with distilled water and admixed with 0.33 N hydrochloric acid in a volume of 0.5 mL/well to extract the dye (methylene blue), followed by transferring the resulting extract to 96-well plates in a volume of 0.1 mL/well for measuring the absorbance at wavelengths of 595 nm and 650 nm. The values, obtained by subtracting the absorbance at a wavelength of 650 nm from that of 595 nm, were regarded as indexes of cell growth rates, which were relatively evaluated by regarding the value, as a control, obtained with KB2-HI medium free of ascorbic acid 2-glucoside as 100%.

Turning to `O=C1O[C@H]([C@@H](O)CO)C(O)=C1O[C@H]1O[C@H](CO)[C@@H](O)[C@H](O)[C@H]1O` [ascorbic acid 2-glucoside, 2-O-α-D-glucosyl-L-ascorbic acid], the “Relative expression level, Involucrin” value is 74% in the test on Involucrin (300 μM, calibrated with α-Tubulin) and 84% in the test with Involucrin (600 μM). The Cell growth rate with NHEK cells (100 μM, control without ascorbic acid 2-glucoside = 100%) amounted to 148%; in the test on NHEK cells (300 μM, control = 100%) it was 157%; with NHEK cells (900 μM, control = 100%) it was 169%.
